Results as given in US20170190726A9, “PRODRUG FOR RELEASE OF CISPLATIN AND CYCLOOXYGENASE INHIBITOR” (priority 2013, published 2017).

Key:
PC3 cells [1] = test: MTT cytotoxicity assay in PC3 cells; type: cell-based, Human; conditions: 72 h
Description: (§1) Human prostate cancer cell lines LNCaP, PC3, and DU145 and RAW 264.7 macrophages were procured from the American type culture collection (ATCC). DU145 cells were grown at 37° C. in 5% CO2 in Eagle's minimum essential medium (EMEM) supplemented with 10% fetal bovine serum (FBS) and 1% penicillin/streptomycin. […] Cells were passed every 3 to 4 days and restarted from frozen stocks upon reaching pass number 20. The cytotoxic behaviors of cisplatin, aspirin, cisplatin+aspirin, and Platin-A were evaluated using the MTT assay against PC3, DU145, LNCaP, and RAW 264.7 cells. […] The cells were treated with different constructs at varying concentrations and incubated for 72 h at 37° C. except for RAW 264.7 macrophages. […] The cells were then treated with 20 μL of MTT (5 mg/mL in PBS) for 5 h. […] Each well was performed in triplicate. […] The IC50 values were reported at +95% confidence intervals.

DU145 cells = test: MTT cytotoxicity assay in DU145 cells; type: cell-based, Human; conditions: 72 h
Description: as §1

LNCaP cells = test: MTT cytotoxicity assay in LNCaP cells; type: cell-based, Human; conditions: 72 h
Description: as §1

IL-6 = test: ELISA of IL-6 in LPS-stimulated RAW 264.7 macrophages; type: cell-based, mouse; conditions: for LPS-induced IL-6 production: preventive: pretreatment 10 μM 6 h, then LPS 12 h
Description: (§2) RAW 264.7 cells were plated at a concentration of 10,000 cells/mL in 96 plates and allowed to grow overnight. For preventative anti-inflammatory treatment, Platin-A (10 μM), aspirin (10 μM), cisplatin (10 μM) and an equimolar ratio of cisplatin and aspirin (10 μM each) was incubated with the RAW cells for 6 h. Lipopolysaccharide (LPS) (100 ng/mL) was added and the cells were further incubated for 12 h. For therapeutic anti-inflammatory treatment, LPS (100 ng/mL) was added to the RAW cells and incubated for 6 h. Platin-A (10 μM), aspirin (10 μM), cisplatin (10 μM) and an equimolar ratio of cisplatin and aspirin (10 μM each) was then added to the cells and incubated for 12 h. ELISA was performed on the supernatants against the cytokines interleukin (IL)-6, IL-10, and TNF-α. Briefly, antibody coated plates were blocked with 10% FBS in PBS for 1 h at room temperature followed by 3 washes. RAW cell supernatants were incubated on the plates for 2 h at room temperature. This was immediately followed by washings and sequential incubations with the cytokine-biotin conjugate and streptavidin working solution. Finally, the substrate reagent containing 3,3′,5,5′-tetramethylbenzidine (100 μL) was added to each well, incubated for 15 min, the reaction was stopped by adding 50 μL H2SO4 (0.1 M). The absorbance was recorded at 450 nm using a BioTek Synergy HT well plate reader.

TNF-α = test: ELISA of TNF-α in LPS-stimulated RAW 264.7 macrophages; type: cell-based, mouse; conditions: for LPS-induced TNF-α production: preventive: pretreatment 10 μM 6 h, then LPS 12 h
Description: as §2

PC3 cells [2] = test: Apoptosis detection by annexin V/PI assay; type: cell-based, Human; conditions: 25 μM, 6 h
Text: High expression of COX-2 is found in various cancers, however, for PCa cell lines as well as tissue, contradictory results exist. We therefore tested anti-proliferative properties of Platin-A on androgen-responsive LNCaP and androgenunresponsive PC3 and DU145 PCa cells that differ in their malignant potentials. […] However, in LNCaP cells, Platin-A activity was better than an equimolar mixture of cisplatin and aspirin. In general, Pt(IV) compounds are less cytotoxic compared to their active Pt(II) form. […] To evaluate whether Platin-A-dependent inhibition of cancer cell proliferation is associated with apoptosis, Alexa Fluor® 488 annexin V/propidium iodide (PI) staining assay was carried out in PC3 cells and the data were analyzed by fluorescence assisted cell sorting. […]
PC3 cells were seeded at a density of 1×10^6 cells/mL on each well of a six well plate and allowed to grow overnight. […] Cell density was determined and cells were resuspended in 1× annexinVbinding buffer to 1×10^6 cells/mL preparing a sufficient volume to have 100 μL per assay. […] After the incubation period, 400 μL of 1× annexin-binding buffer was added to each sample, samples were gently mixed keeping the samples on ice, and the samples were analyzed on the flow cytometer immediately.

[3] = therapeutic: LPS activated macrophages then 10 μM for 12 h

Row | Structure (SMILES) | IC50 (PC3 cells [1]) [µM] | IC50 (DU145 cells) [µM] | IC50 (LNCaP cells) [µM] | LPS-induced IL-6 production (IL-6) | levels of IL-6 (IL-6; [3]) | LPS-induced TNF-α production (TNF-α) | levels of TNF-α (TNF-α; [3]) | apoptosis induction (annexin V/PI) (PC3 cells [2])
1 | N.N.[Cl][Pt][Cl] [Cisplatin, Cis-diamminedichloroplatinum(II)] | 14 ± 4 | 5 ± 2 | 15 ± 1 | did not show any preventive action | did not show any effect | did not show any preventive action | did not show any effect | –
2 | CC(=O)Oc1ccccc1C(=O)O [Aspirin, Acetylsalicylic acid] | – | – | – | did not show any preventive action | – | did not show any preventive action | – | did not show any changes in healthy PC3 populations
